Reference: ChEMBL document CHEMBL3507680, “University of Dundee, Gates Library screen for HepG2 cell viability”

Experiment: Human HepG2 cell viability assay in 384 well format
Assay type: toxicity, cell-based
Set-up: dose 125 nL, time 70.5 hour; concentration not given beside the values
Settings: HepG2 cells, read-out: Inhibition

Structure (SMILES) | cytotoxicity at 70.5 h [%]
CN(C)c1cc(CNC(=O)Nc2nccs2)ccn1 | -1.57
CC(C)NS(=O)(=O)c1cc(C(=O)O)cc(-c2ccc3c(c2)OCO3)c1 | -9.21
CN1CCCC(c2cccc(CCC(N)=O)n2)C1 (configuration not stated) | -3.92
O=C(c1cc2c([nH]c1=O)CCC2)N1CCCC1c1ccccc1 (configuration not stated) | -4.54
Cc1noc(C2CCC3(CCN(C(=O)c4ccnnc4)CC3)O2)n1 (configuration not stated) | -0.131
O=C1CC2(CCCC2)CC(=O)N1CCn1cnnc1 | -8.05
CCCNc1ccc(C(=O)NCCc2ccc(Cl)cc2)cn1 | -5.63
CC(=O)c1cc(CN2C[C@@H](CN3CCCC3)[C@@H](CO)C2)n(C)c1 | -5.11
CCN(Cc1ccncc1)C1CCCN(C/C=C/c2ccc(F)cc2)C1 (configuration not stated) | -3.49
CN(Cc1noc(C(C)(C)C)n1)CC1CCN(CCO)CC1 | -3.04
c1cc(-c2c[nH]c([C@@H]3COCCN3C3CCCCC3)n2)ccn1 | 0.143
CCOc1ccccc1C(CC(=O)Nc1ccccn1)NC(C)=O (configuration not stated) | -5.35
O=C(CN1CCOC1=O)N(Cc1ccccc1)Cc1nccs1 | -14.3
Cc1cccc(N2CCN(S(=O)(=O)CCN)CC2)c1 | 21.4
CCn1c(CC2CCN(S(=O)(=O)c3cccc(C)c3)CC2)nn(C)c1=O | -4.11
Cc1ccccc1C(=O)NCCCN1CCc2ccccc2C1 | 19.4
Cn1c(CCC(=O)N2CCCC3(CC2)CNC(=O)O3)nc2cccnc21 (configuration not stated) | 44
O=C(NCCOCC1CC1)Nc1ccc(F)cc1 | -9.49
Cc1nn(C)cc1C1CC(=O)Nc2c1cnn2C (configuration not stated) | -5.3
Cc1noc(CN(Cc2cccc(C#N)c2)Cc2cccs2)n1 | 0.497
Cc1ccc(S(=O)(=O)NC(=O)COc2cccc(C#N)c2)c(C)c1 | 14.4

Structure (SMILES) | cytotoxicity at 70.5 h [%]
Cc1nc2c(c(N3CCN(c4ncccc4C(N)=O)CC3)n1)CCNC2 | -3.51
COC(C)(C)CNC(=O)N1CCCC1c1c(C)n[nH]c1C (configuration not stated) | -13.9
CC(NC(=O)NCCCO)c1ccc2c(c1)NC(=O)CO2 (configuration not stated) | -12
CC(C)N(Cc1ccc(Cl)c(Cl)c1)C(=O)CCn1cncn1 | -2.22
Cc1cc(CNc2ccccc2N2CCCCC2)no1 | -24
COc1cccc(CNC(C)Cn2cccn2)c1OC (configuration not stated) | 2.73
Cc1cc(F)cc2c(N3CCS(=O)(=O)CC3)c(C#N)cnc12 | 0.465
O=C(Nc1cccc(CN2CCOC2=O)c1)N1CCOCC1 | -3.32
CCN(CC)CCNC(=O)c1cc(OC)c2ccoc2c1 | -5.95
COc1ncccc1NC(=O)N(Cc1ccc(C)o1)C1CC1 | -9.49
O=C(NCc1nnc2ccccn12)N1CCc2sccc2C1 | -21.7
Cc1cnn(CC2CN(CCN3CCCC3=O)CCO2)c1 (configuration not stated) | -11.5
Cc1cccc(CN2C[C@@H]3COC[C@]3(CNC(=O)c3ccccc3)C2)n1 | -12.2
NC(=O)N1CCCC(C(=O)NCc2ccccc2OC(F)(F)F)C1 (configuration not stated) | -9.4
CCC(O)CN1CCN(C(=O)c2ccn(-c3ccccc3)n2)CC1 (configuration not stated) | 2.94
Cc1cc(C)n(-c2ccc(CNCc3ccc(F)cc3F)cn2)n1 | -11.6
CSCCCN1C[C@H](NC(=O)c2ccc(C#N)nc2)[C@@H](C2CC2)C1 | -0.265
CN(C(=O)Nc1ccncc1)C1CCN(c2ccccc2)C1=O (configuration not stated) | -11.8
Cc1nccn1Cc1nnc(C2CCCN(Cc3ccncc3)C2)n1C (configuration not stated) | -17.2
CCN(C)S(=O)(=O)N1CCC(C(O)c2ccc(F)cc2)CC1 (configuration not stated) | -2.3
CCCn1cc(S(=O)(=O)N[C@H]2CN(CCO)C[C@@H]2C2CC2)cn1 | -7.84

Structure (SMILES) | cytotoxicity at 70.5 h [%]
COc1cccc(OC)c1CNC(Cc1ccsc1)c1ccc(C)cn1 (configuration not stated) | 4.63
O=C(NCCc1c[nH]cn1)c1ccc2c(c1)C(=O)N(C1CCCC1)C2=O | -1.68
CCOCC1c2c(cnn2C)CCN1C(=O)c1cc(C)on1 (configuration not stated) | 6.2
Cc1cc(CN(C)C(=O)c2ccc(OC(C)C)nc2)no1 | 20
O=C(NCCc1cccs1)C1(N2CCCCC2)Cc2ccccc2C1 | -7.46
Cc1ccccc1OC1CCN(CC(=O)Nc2c(C)nn(C)c2C)CC1 | 1.35
CNCc1cc(F)ccc1Oc1ccc(F)cc1 | 2.53
Cc1n[nH]c(C2CN(CC(=O)NCc3sccc3C)CCO2)n1 (configuration not stated) | -93.4
O=C1CN([C@@H]2CC[C@@H](NS(=O)(=O)c3ccccc3)[C@H]2O)CCN1 | -2.13
Cc1cc(C)n(C2CN(Cc3nc4cc(Cl)ccc4n3C)C2)n1 | 4.28
CN(CC(F)(F)F)C(=O)CNC(=O)Cc1cccc(O)c1 | 1.12
Cc1n[nH]c(C)c1CC(=O)N1CCCN(C)C2(CCN(C)CC2)C1 | 23.3
CCC(CNC(=O)Cn1ccnc1)Oc1cccc(F)c1 (configuration not stated) | 21.1
OCC1CCCCN1CCn1ccnc1-c1nc2ccccc2[nH]1 (configuration not stated) | -2.11
CCN1CC2(CCN(C(=O)N(C)C)CC2)COc2ccccc2S1(=O)=O | 4.83
Cc1ccccc1N1CCN(C(=O)CCc2nncn2C)C(C)C1 (configuration not stated) | -1.67
O=C(NC1CC1)C1CCCN(c2cc(-n3cncn3)ncn2)C1 (configuration not stated) | 13.5
Cc1ccc(O)c(CNCC(C)c2nc3ccccc3o2)n1 (configuration not stated) | -4.08
CC(c1ccc(-n2cncn2)cc1)N(C)Cc1ccccn1 (configuration not stated) | -7.98
Cc1nn(C)cc1CC(C#N)C(=O)Nc1cccc(O)c1 (configuration not stated) | -12.6
O=C(Cc1cccnc1)N1CCC2(CCN(CC3CCCCC3)C2)CC1 | 7.82

Structure (SMILES) | cytotoxicity at 70.5 h [%]
O=C1NCC[C@]12CN(Cc1ccncc1)C[C@H]2c1ccccc1 | -1.85
O=C1CC(c2ccncc2)C2(CCN(C(=O)c3cccc(F)c3)CC2)N1 (configuration not stated) | -9.17
COCCC1(CNC(=O)NCC2CN(C)CCN2C)CCC1 (configuration not stated) | -2.66
COc1ccc(CN2CCOC[C@H](Oc3cccnc3)C2)cc1 | 4.36
CO[C@H]1CCN(S(=O)(=O)c2cccs2)[C@H]1Cc1cccnc1 | 2.3
CN1CCCN(C[C@@H]2CN(C(=O)CC3CCC3)C[C@@H]2CO)CC1 | -2.25
COCC1CC2(CCNCC2)CN1Cc1csc(C)n1 (configuration not stated) | -8.39
CN(C)C(=O)COCc1nn(C)c2c1CCN(Cc1ccco1)C2 | -5.57
O=C(Cc1ccc(F)cc1)N1CCN(CC(O)C2CC2)CC1 (configuration not stated) | -1.1
CCN1CCC12CCN(C(=O)c1ccsc1)C2 (configuration not stated) | -12.4
COCCNC(=O)Nc1ccc(-n2cncn2)c(F)c1 | 40.1
CCOCc1cncc2c1CCN(S(=O)(=O)c1cccc(C)c1)C2 | -4.1
FC(F)(F)c1ccc(CN2CCN(Cc3cscn3)CC2)cc1 | -12.5
Cc1cnn(CC2CN(CC(=O)Nc3cc(C)no3)CCO2)c1 (configuration not stated) | -9.53
CNC(=O)C1(c2cnccn2)CCCN1C(=O)c1cccc(F)c1 (configuration not stated) | 20.4
CC(C)(NS(C)(=O)=O)c1nc(-c2ccncc2)no1 | 18.6
NC(=O)C1CCN(C(=O)NCc2cccnc2OC2CCCC2)C1 (configuration not stated) | -5.81
O=C(O)[C@@H]1CN(Cc2nc3ncccn3n2)C[C@H]1c1cccc(F)c1 | 26.1
COCCN1CCCC(c2ncc(C(=O)N(C)C)c(C)n2)C1 (configuration not stated) | -1.17
